Antibiotic sensitivity/resistance data for two compounds are collected here from US20100074846A1, “Campylobacter Vaccines and Methods of use” (priority 2006, published 2010).

The subject of this assay is Campylobacter species pig isolates. The experiment in a line: nalidixic acid and cephalothin antibiotic sensitivity and resistance testing of pig isolates. Format: cell-based, Campylobacter coli.

Each structure is given as a SMILES string.

For `CC(=O)OCC1=C(C(=O)O)N2C(=O)[C@@H](NC(=O)Cc3cccs3)[C@H]2SC1` [Cph, cephalothin], the antibiotic sensitivity/resistance entry reads like this: (pig isolate 1-Group B) “S”; (pig isolate 2-Group B) “R”; (pig isolate 3-Group A) “R”; (pig isolate 3-Group B) “R”; (pig isolate 4-Group A) “S”; (pig isolate 6-Group A) “R”. Also, the antibiotic sensitivity/resistance result (pig isolate 7-Group A) is reported as “R”.
Turning to `CCn1cc(C(=O)O)c(=O)c2ccc(C)nc21` [NA, nalidixic acid], the antibiotic sensitivity/resistance entry is, setting by setting: (pig isolate 1-Group B) “S”; (pig isolate 2-Group B) “S”; (pig isolate 3-Group A) “R”; (pig isolate 3-Group B) “S”; (pig isolate 4-Group A) “S”; (pig isolate 6-Group A) “S”. The antibiotic sensitivity/resistance result (pig isolate 7-Group A) is “S”.
